Tested on: TNFα
Test: IRAK4 Monocyte TNFα Cell Based Assay
Parameters: species or system human
Conditions: human monocytes; second part of Table 2, compounds 33-343; unit inferred; read-out: EC50 MONO TNF HTRF
Protocol: IRAK4 Monocyte TNFα Cell Based Assay Procedure:
The cell suspension was then plated at a density of 5,000 cells/well onto black 384 well Greiner clear bottom plates. Plates were pre-spotted with test compounds and serially diluted in DMSO where 40 nL/well were delivered using the Echo 550 acoustic liquid dispenser (Labcyte®) for a final DMSO concentration of 0.1%. Plated cells were treated with compound for 1 hour at 37° C. Cells were then stimulated with 50 pg/ml of LPS (Sigma) excluding outside columns of plate used for unstimulated cell control wells. Cells were incubated for an additional 4 hours at 37° C. Cells were then spun out of the media and 5 μl of sample were taken and analyzed for total TNFα content using the TR-FRET Human TNFα detection system (CisBio). This system utilizes two labeled antibodies (cryptate and XL665) that bind to two different epitopes of the TNFα molecule and produce FRET signal proportional to the concentration of TNFα in the sample. Detection antibodies are mixed 50:50 and 5 μL were dispensed into each well. Plates were covered with clear seals and incubated at room temp overnight. […] Percent of control was calculated as follows: % Control=100×(Ratiosample−Ratio0% stimulation)/(Ratio100% Stimulation−Ratio0% Stimulation) where unstimulated cells (0% stimulation) were the negative control and stimulated cells (100% stimulation) were used as the positive control.

| EC50 [nM] | SMILES |
| --- | --- |
| 4.9 | CC1(Nc2cc(-c3ccc4cc(C#N)cnn34)ncc2-c2nnc(N3C[C@H]4CC[C@@H](C3)[C@H]4O)s2)COC1 [Example 149, 7-(5-(5-((1R,5S,8r)-8-hydroxy-3-azabicyclo[3.2.1]octan-3-yl)-1,3,4-thiadiazol-2-yl)-4-((3-methyloxetan-3-yl)amino)pyridin-2-yl)pyrrolo[1,2-b]pyridazine-3-carbonitrile] |
| 6.8 | C[C@H](C#N)Nc1cc(-c2ccc3cc(C#N)cnn23)ncc1-c1nnc(N2CCC(C)(O)CC2)s1 [Example 180] |
| 8.4 | CC(C)Nc1cc(-c2ccc3cc(C#N)cnn23)ncc1-c1nnc(N2CC[C@@](C)(O)[C@@H](F)C2)s1 [Example 186, 7-(5-(5-((3S,4R)-3-fluoro-4-hydroxy-4-methylpiperidin-l-yl)-1,3,4-thiadiazol-2-yl)-4-(isopropylamino)pyridin-2-yl)pyrrolo[1,2-b]pyridazine-3-carbonitrile] |
| 22.4 | CNc1cc(-c2ccc3cc(C#N)cnn23)ncc1-c1nnc([C@H]2C[C@H](NC(C)=O)C2)s1 [Example 282, N-((1r,3r)-3-(5-(6-(3-cyanopyrrolo[1,2-b]pyridazin-7-yl)-4-(methylamino)pyridin-3-yl)-1,3,4-thiadiazol-2-yl)cyclobutyl)acetamide] |

Continued, compound first:

| SMILES | EC50 [nM] |
| --- | --- |
| CC(C)Nc1cc(-c2ccc3cc(C#N)cnn23)ncc1-c1nnc([C@H]2CC[C@H](NC(=O)N3CCOCC3)CC2)s1 [Example 139, N-((1r,4r)-4-(5-(6-(3-cyanopyrrolo[1,2-]Apyridazin-7-yl)-4-(isopropylamino)pyridin-3-yl)-1,3,4-thiadiazol-2-yl)cyclohexyl)morpholine-4-carboxamide] | 5.9 |
| CC(C)Nc1cc(-c2ccc3cc(C#N)cnn23)ncc1-c1nnc(N2C[C@H]3CC[C@@H](C2)[C@H]3O)s1 [Example 146, 7-(5-(5-((1R,5S,8r)-8-hydroxy-3-azabicyclo[3.2.1]octan-3-yl)-1,3,4-thiadiazol-2-yl)-4-(isopropylamino)pyridin-2-yl)pyrrolo[1,2-b]pyridazine-3-carbonitrile] | 5.2 |
| N#Cc1cnn2c(-c3cc(NC4COC4)c(-c4nnc([C@H]5CC[C@H](NC(=O)C6CC6)CC5)s4)cn3)ccc2c1 [Example 135, N-((1r,4r)-4-(5-(6-(3-cyanopyrrolo[1,2-b]pyridazin-7-yl)-4-(oxetan-3-ylamino)pyridin-3-yl)-1,3,4-thiadiazol-2-yl)cyclohexyl)cyclopropanecarboxamide] | 10.5 |
| CC(=O)N[C@H]1C[C@H](c2nnc(-c3cnc(-c4ccc5cc(C#N)cnn45)cc3NC(C)C)s2)C1 [Compound 278, N-((1r,3r)-3-(5-(6-(3-cyanopyrrolo[1,2-b]pyridazin-7-yl)-4-(isopropylamino)pyridin-3-yl)-1,3,4-thiadiazol-2-yl)cyclobutyl)acetamide] | 10000 |
| CN1CCN(C(=O)N[C@@H]2[C@@H]3CC[C@H]2CN(c2nnc(-c4cnc(-c5ccc6cc(C#N)cnn56)cc4NC4(C)COC4)s2)C3)CC1 [Example 110, N-((1R,5S,8s)-3-(5-(6-(3-cyanopyrrolo[1,2-b]pyridazin-7-yl)-4-((3-methyloxetan-3-yl)amino)pyridin-3-yl)-1,3,4-thiadiazol-2-yl)-3-azabicyclo[3.2.1]octan-8-yl)-4-methylpiperazine-1-carboxamide] | 1.8 |
| CC(=O)N[C@H]1CC[C@H](c2nnc(-c3cnc(-c4ccc5cc(C#N)cnn45)cc3NC3CCOCC3)s2)CC1 [Compound 255, N-((1r,4r)-4-(5-(6-(3-cyanopyrrolo[1,2-b]pyridazin-7-yl)-4-((tetrahydro-2H-pyran-4-yl)amino)pyridin-3-yl)-1,3,4-thiadiazol-2-yl)cyclohexyl)acetamide] | 5.1 |
| CC(=O)N1CCC2(CC1)CN(c1nnc(-c3cnc(-c4ccc5cc(C#N)cnn45)cc3NC(C)C)s1)C2 [Example 67, 7-(5-(5-(7-acetyl-2,7-diazaspiro[3.5]nonan-2-yl)-1,3,4-thiadiazo1-2-yl)-4-(isopropylamino)pyridin-2-yl)pyrrolo[1,2-b]pyridazine-3-carbonitrile] | 10.4 |
